Experimental data taken from patent US20230348362A1, “LIPID COMPOUNDS AND LIPID NANOPARTICLE COMPOSITIONS” (Suzhou Abogen Biosciences Co., Ltd., priority 2021, published 2023).

How the values were obtained:
Assay type in all cases: physicochemical
[1] = Apparent pKa of LNP formulations, TNS fluorescence assay; conditions: LNP cationic lipid/DSPC/cholesterol/DMG-PEG 50/10/38.5/1.5 mol %
Procedure: As reported in literature, the apparent pKa of LNP formulations correlates with the delivery efficiency of LNPs for nucleic acids in vivo. The apparent pKa of each formulation was determined using an assay based on fluorescence of 2-(p-toluidino)-6-napthalene sulfonic acid (TNS). LNP formulations comprising of cationic lipid/DSPC/cholesterol/DMG-PEG (50/10/38.5/1.5 mol %) in PBS were prepared as described above. TNS was prepared as a 300 μM stock solution in distilled water. LNP formulations were diluted to 0.1 mg/mL total lipid in 3 mL of buffered solutions containing 50 mM sodium citrate, 50 mM sodium phosphate, 50 mM sodium borate, and 30 mM sodium chloride where the pH ranged from 3 to 9. An aliquot of the TNS solution was added to give a final concentration of […] and following vortex mixing fluorescence intensity was measured at room temperature in a Molecular Devices Spectramax iD3 spectrometer using excitation and mission wavelengths of 325 nm and 435 nm. A sigmoidal best fit analysis was applied to the fluorescence data and the pKa value was measured as the pH giving rise to half-maximal fluorescent intensity.

[2] = Encapsulation efficiency of lipid nanoparticles, Quant-it Ribogreen RNA assay; conditions: LNP of lipid/DSPC/cholesterol/PEG-lipid 50:10:38.5:1.5 encapsulating hEPO mRNA
Procedure: (§1) Briefly, a cationic lipid provided herein, DSPC, cholesterol, and PEG-lipid were solubilized in ethanol at a molar ratio of 50:10:38.5:1.5, and mRNA were diluted in 10 to 50 mM citrate buffer, pH=4. The LNPs were prepared at a total lipid to mRNA weight ratio of approximately 10:1 to 30:1 by mixing the ethanolic lipid solution with the aqueous mRNA solution at a volume ratio of 1:3 using a microfluidic apparatus, total flow rate ranging from 9-30 mL/min. Ethanol were thereby removed and replaced by DPBS using dialysis. Finally, the lipid nanoparticles were filtered through a […] sterile filter.
(§2) Lipid nanoparticle size were determined by dynamic light scattering using a Malvern Zetasizer Nano ZS (Malvern UK) using a […] backscatter detection mode. The encapsulation efficiency of lipid nanoparticles were determined using a Quant-it Ribogreen RNA quantification assay kit (Thermo Fisher Scientific, UK) according to the manufacturer's instructions.

[3] = Lipid nanoparticle size and polydispersity by dynamic light scattering; conditions: LNP of lipid/DSPC/cholesterol/PEG-lipid 50:10:38.5:1.5 encapsulating hEPO mRNA
Procedure: as §1, §2

| Compound | Apparent Pka [1] | Encapsulation Efficiency [2] | polydispersity [3] | size (nm) [3] |
| --- | --- | --- | --- | --- |
| CCCCCCCC(=O)OCC(CCCCN(CCO)CCCCN(CCCCC(COC(=O)CCCCCCC)COC(=O)CCCCCCC)C1CCC1)COC(=O)CCCCCCC [Compound 219] | 6.327 | 94.13% | 0.103 | 91.17 nm |
| CCCCCCCCC(CCCCCCCC)CC(=O)NCCCCCN(CCO)CCN(CCCCCNC(=O)CC(CCCCCCCC)CCCCCCCC)C1CCC1 [Compound 60] | 6.761 | 91.7% | 0.039 | 59.89 nm |
| CCCCCCCCC(CCCCCCCC)COC(=O)CCCCCN(CCO)CCN(CCCCCC(=O)OCC(CCCCCCCC)CCCCCCCC)C1CCOC1 (stereo not shown) [Compound 33] | 6.305 | 87.6% | 0.052 | 57.51 nm |
| CCCCCCCCC(CCCCCCCC)COC(=O)CCCCCN(CCO)CCN(CCCCCC(=O)OCC(CCCCCCCC)CCCCCCCC)C1CCC(F)(F)CC1 [Compound 66] | 6.009 | 93.17% | 0.068 | 56.3 nm |
| CCCCCCCCCCCC(=O)OCCCCCN(CCN(CCO)CCCCCOC(=O)CC(CCCCCCCC)CCCCCCCC)C1CCC1 [Compound 92] | 6.582 | 91.34% | 0.014 | 80.12 nm |
| CCCCCCCC(=O)OCC(CCCCN1CCC(N(CCO)CCCCC(COC(=O)CCCCCCC)COC(=O)CCCCCCC)CC1)COC(=O)CCCCCCC [Compound 180] | 6.699 |  |  |  |
| CCCCCCCCCCCOC(=O)CCCCCN1CCC(N(CCO)CCCCCC(=O)OCC(CCCCCCCC)CCCCCCCC)CC1 [Compound 173] |  | 95.29% | 0.068 | 61.61 nm |
| CCCCCCCCC(CCCCCCCC)CNC(=O)CCCCCN1CCC(N(CCO)CCCCCC(=O)NCC(CCCCCCCC)CCCCCCCC)CC1 [Compound 172] |  | 93.55% | 0.061 | 69.59 nm |
| CCCCCCCCCCCOC(=O)CCCCCN(CCN(CCO)CCCCCC(=O)N(CCCCCCCC)CCCCCCCC)C1CCCCC1 [Compound 90] |  | 82.56% | 0.030 | 101.70 nm |
| CCCCCCCCCCCOC(=O)CCCCCN(CCN(CCO)CCCCCC(=O)NCC(CCCCCCCC)CCCCCCCC)C1CCCCC1 [Compound 44] |  | 92.6% | 0.081 | 77.48 nm |
| CCCCC/C=C\C/C=C\CCCCCCCC(=O)OCCCCCN(CCN(CCO)CCCCCC(=O)OCC(CCCCCCCC)CCCCCCCC)C1CCCCC1 [Compound 108] |  | 91.83% | 0.068 | 67.69 nm |
| CCCCCCCCCC(=O)OCC(CCCCN(CCO)CCN(CCCCC(COC(=O)CCCCCCCCC)COC(=O)CCCCCCCCC)C1CCC1)COC(=O)CCCCCCCCC [Compound 167] |  | 91.97% | 0.128 | 69.47 nm |
| CCCCCCCCC(CCCCCC)CNC(=O)CCCCCN(CC)CCN(CCO)CCCCC(COC(=O)CCCCCCC)COC(=O)CCCCCCC (stereo not shown) [Compound 159] |  | 90.71% | 0.080 | 77.72 nm |
| CCCCCCCCC(CCCCCCCC)CC(=O)NCCCCCN(CCN(CCO)CCCCCOC(=O)CC(CCCCCCCC)CCCCCCCC)C1CCCCCCC1 [Compound 75] |  | 92.59% | 0.037 | 76.62 nm |
| CCCCCCCCCCCOC(=O)CCCCCN(CCN(CCO)CCCCCC(=O)OCC(CCCCCCCC)CCCCCCCC)C1CC1 [Compound 129] |  | 90.52% | 0.069 | 58.08 nm |
| CCCCCCCCCCCC(=O)OCCCCCN(CCN(CCO)CCCCCOC(=O)CC(CCCCCCCC)CCCCCCCC)C1CCCC1 [Compound 93] |  | 92.84% | 0.064 | 76.12 nm |
| CCCCCCCCCCCOC(=O)CCCCCN(CCN(CCO)CCOCCC(=O)OCC(CCCCCCCC)CCCCCCCC)C1CCCCC1 [Compound 115] |  | 90.22% | 0.058 | 97.51 nm |
| CCCCCCCCCCCC(=O)OCCCCCN(CCN(CCO)CCCCCNC(=O)CC(CCCCCCCC)CCCCCCCC)C1CCCCC1 [Compound 59] |  | 95.1% | 0.063 | 70.3 nm |
| CCCCCCCCCCCOC(=O)CCCCCN(CCN(CCO)CCCCCNP(=O)(OCCCCCCCCC)OCCCCCCCCC)C1CCCCC1 [Compound 100] |  | 85.49% | 0.085 | 93.16 nm |

Other lines, results leading:

| Apparent Pka [1] | Encapsulation Efficiency [2] | polydispersity [3] | size (nm) [3] | Compound |
| --- | --- | --- | --- | --- |
| 6.789 | 89.14% | 0.058 | 76.29 nm | CCCCCCCCC(CCCCCC)CNC(=O)CCCCN(CCO)CCN(CCCCC(COC(=O)CCCCCCC)COC(=O)CCCCCCC)C1CCCCCCC1 (stereo not shown) [Compound 214] |
| 6.218 | 87.29% | 0.055 | 71.85 nm | CCCCCCCCC(CCCCCC)COC(=O)CCCCCN(CCO)CCN(CCCCC(COC(=O)CCCCCCC)COC(=O)CCCCCCC)C1CCCCCC1 (stereo not shown) [Compound 142] |
| 6.671 | 98.9% | 0.033 | 58.8 nm | CCCCCCCCC(CCCCCCCC)CNC(=O)CCCCCN(CCO)CCN(CCCCCC(=O)OCC(CCCCCCCC)CCCCCCCC)C1CCCCCC1 [Compound 17] |
| 6.81 | 80.88% | 0.07 | 112.7 nm | CCCCCCCCC(CCCCCC)CNC(=O)CCCCCN(CCOCCO)CCN(CCCCC(COC(=O)CCCCCCC)COC(=O)CCCCCCC)C1CCCCC1 (stereo not shown) [Compound 206] |
|  | 89.17% | 0.058 | 63.54 nm | CCCCCCCCC(CCCCCC)CNC(=O)CCCCCN(C)CCN(CCO)CCCCC(COC(=O)CCCCCCC)COC(=O)CCCCCCC (stereo not shown) [Compound 158] |
|  | 88.63% | 0.047 | 68.91 nm | CCCCCCCCC(CCCCCC)CNC(=O)CCCCCN(CCO)CCN(CCCCC(COC(=O)CCCCCCC)COC(=O)CCCCCCC)C1CCCCCCC1 (stereo not shown) [Compound 145] |
|  | 87.81% | 0.076 | 59.97 nm | CCCCCCCCC(CCCCCC)COC(=O)CCCCCN(CCO)CCN(CCCCC(COC(=O)CCCCCCC)COC(=O)CCCCCCC)C1CCCCC1 (stereo not shown) [Compound 139] |
|  | 90.03% | 0.107 | 81.24 nm | CCCCCCCCC(CCCCCC)CNC(=O)CCCCCN(CCO)CCN(CCCCC(COC(=O)CCCCCCC)COC(=O)CCCCCCC)C1CCCC1 (stereo not shown) [Compound 138] |
|  | 86.33% | 0.18 | 104.1 nm | CCCCCCCCC(CCCCCC)CNC(=O)CCCCCN(CCCCN(CCO)CCCCC(COC(=O)CCCCCCC)COC(=O)CCCCCCC)C1CCCC1 (stereo not shown) [Compound 196] |
|  | 87.31% | 0.048 | 122.1 nm | CCCCCCCCC(CCCCCC)CNC(=O)CCN(CCO)CCN(CCCCC(COC(=O)CCCCCCC)COC(=O)CCCCCCC)C1CCCCCC1 (stereo not shown) [Compound 212] |
